Assay results published in patent US20210346342A1, “COMBINATION OF AN UROLITHIN WITH AN IMMUNOTHERAPY TREATMENT” (Amazentis SA, priority 2019, published 2021).

Key:
[1] = test system: APTK organoid xenograft tumours; assay: APTK organoid model with depletion of CD8+ cytotoxic T cells by anti-CD8; type: in vivo, mouse; settings: UA 200 mpk diet plus anti-CD8 150 μg i.p. every second day, FIG. 7
Experimental: For this model, C57/BL6 were maintained on a Urolithin A 200 mpk or control diet. One week after starting the dietary intervention, mice were transplanted subcutaneously with APTK organoids as described above. Starting at day 3, these mice received 5 intraperitoneal injections (150 μg every second day) of an anti-CD8 or isotype control antibody (BioXCell) to deplete CD8+ cytotoxic T cells. As in the previous experiments, tumour growth is measured by calliper measurements.

[2] = test system: APTK organoid xenograft tumours; assay: APTK organoid subcutaneous xenograft tumour model: tumour volume, CD3 and cleaved caspase 3 staining; type: in vivo, mouse
Source text: • Colorectal cancer organoids (from here on also referred to as APTK organoids) are generated by the selective introduction of tumourigenic mutation in the gene APC (A), p53 (P), Tgf-beta1 (T) and K-ras (K). Since APTK organoids have been developed on a C57/BL6 genetic background, they can be transplanted to generate tumours in wild type BL6 mice with an intact immune system that allows to study the immune response towards the developing tumour. One week prior to subcutaneous transplantation, the mice are fed either a Urolithin A-containing or control diet. Tumour growth is assessed by calliper measurements. The resulting tumours are analysed histologically.

[3] = test system: AOM model of colorectal cancer; assay: AOM model of colorectal cancer: lesion count/size (H&E) and anti-CD3 immunostaining of colonic mucosa; type: in vivo, mouse
Experimental: • A model of sporadic tumourigenesis can be obtained applying repetitively azoxymethane (AOM), without dextran sodium sulphate, to female wild-type FVB mice. In particular, tumours are induced by six weekly intraperitoneal injections of AOM (10 mg/kg) in wild type animals. Mice are analysed 18-24 weeks later. Urolithin A is applied in the diet at a dose of 50 or 200 mg/kg mouse a day (mpk), or control lab diet one week before starting the 6 injections of AOM, during the 6 weeks of injections with AOM, and for approximately 20 weeks following these injections, for a total of ca. 27-30 weeks. At the end of the treatment period, mice are euthanized by cervical dislocation for the collection of intestinal tissues.

[4] = Pharmacokinetic profile of orally administered urolithin A; type: in vivo; settings: 250 mg to 1000 mg urolithin A compared with 2000 mg
[5] = test system: APTK organoid xenograft tumours; assay: APTK organoid model combined with anti-PD1 injections; type: in vivo, mouse; settings: Urolithin A 200 mpk with isotype control antibody vs anti-PD1 200 μg i.p. every third day, FIG. 8
Experimental: • C57BL/6 mice are transplanted subcutaneously with APTK organoids as described in Example 2 and either, fed with a Urolithin A 200 mpk or control diet (initiated one week prior to subcutaneous injection) and receive 4 intraperitoneal injections (200 μg every third day, starting day 5) of a blocking anti-PD1 or isotype control antibody (BioXCell).

[6] = test system: previously treated, unresectable melanoma; settings: patients with previously treated; cited from earlier work
[7] = test system: advanced, previously untreated non-small cell lung cancer; settings: patients with advanced; cited from earlier work

| Compound | anti-tumoural effect (tumour volume) when CD8+ cytotoxic T cells are abrogated [1] | tumour volume ([2]; UA 200 mpk diet vs control diet, calliper, FIG. 4) | CD3 positive cells at the invasive margin ([2]; UA 200 mpk vs control, FIG. 5) | CD3 positive cells inside the core of the tumours ([2]; UA 200 mpk vs control, FIG. 5) | cleaved Casp3 staining (marker of apoptosis) ([2]; UA 200 mpk vs control, FIG. 6) | number of lesions ([3]; UA 200 mpk in diet vs control diet, H&E of colonic tissue, FIG. 2) | CD3 positive cells in colonic mucosa ([3]; UA 200 mpk vs control, anti-CD3 immunostaining, FIG. 3) | size of lesions ([3]; UA treated animals vs control diet, FIG. 2) | pharmacokinetic profile [4] | tumour growth, Urolithin A alone versus anti-PD1 antibody treatment [5] | progression free survival [6] | response rate [6] | response rate [7] |
| --- | --- | --- | --- | --- | --- | --- | --- | --- | --- | --- | --- | --- | --- |
| O=c1oc2cc(O)ccc2c2ccc(O)cc12 [Urolithin A] | anti-tumoural effect of UA is lost | significant lower tumour volume | less CD3 positive cells at the invasive margin | more CD3 positive cells inside the core of the tumours | significant increase of cleaved Casp3 staining | significantly decreases the number of lesions | tend to have more CD3 positive cells | appear to be of smaller size | surprisingly good pharmacokinetic profile | no difference was observed | – | – | – |
| nivolumab | – | – | – | – | – | – | – | – | – | – | 9.7 months | 31% | 30% |
| pembrolizumab: humanized monoclonal IgG4 antibody directed against human cell surface receptor PD-1 | – | – | – | – | – | – | – | – | – | – | 50 weeks | 34% | 26% |
